As usually defined, the AUC is the area under the concentration-time curve, a measure of exposure. In general, bioavailability refers to the share of a dose that reaches the circulation, judged against a reference dose that is usually intravenous. A lower bioavailability goes with little systemic uptake. As usually defined, the Cmax is the peak of the concentration-time curve. By half-life is commonly meant the time in which the quantity being followed falls by half.

Type in all cases: ADME, organism-based
The nature of series [1]: AUC in rat at 10 mg/kg, po administered as single dose. The conditions noted are these: in vivo.
The nature of series [2]: Oral bioavailability in rat at 10 mg/kg administered as single dose. The conditions noted are these: in vivo.
Series [3] is described as follows: Volume of distribution at steady state in rat at 1 mg/kg, iv. Conditions: in vivo, read-out: Vdss.
In another series the test system is Rattus norvegicus. Kind of series: Time duration for plasma concentration stays above in vitro IC80 level in rat at 10 mg/kg, po administered as single dose. The conditions noted are these: in vivo.
Series [4] in a line: Cmax in rat at 10 mg/kg, po administered as single dose. Also noted: dose 10 mg/kg, route oral. The conditions noted are these: in vivo.
Series [5] in a line: Half life in rat at 1 mg/kg, iv. The conditions noted are these: in vivo.

The structures appear in SMILES notation.

Turning to `O=C(COCCc1cnn[nH]1)N1Cc2cnc(NC3Cc4ccccc4C3)nc2C1`, the exposure (AUC) in series [1] amounted to 3.44 µM·h. The same molecule displayed a bioavailability in series [2] of 23%. The Vd in series [3] was found to be 1.4 L/kg. The Time with Rattus norvegicus was greater than 12 h. This molecule also had a Cmax in series [4] of 660 nM. For the same molecule, in series [5], the half-life was 1.14 h.

Values taken from ChEMBL document CHEMBL4431396, “Novel Autotaxin Inhibitors for the Treatment of Osteoarthritis Pain: Lead Optimization via Structure-Based Drug Design” (ACS Med Chem Lett, 2016).
